How the values were obtained:
[1] = system: CCNT1; assay: CCNT1 ChIP-seq with increasing concentrations of JQ1; assay type: cell-based, human; conditions: BRD4-IAA7 cells; series concentration of JQ1, 3 h
Protocol: (§1) FIGS. 5A-5J collectively illustrate the identification of a distinct BRD4-PTEFb population, which is active but not histone acetylation-bound. FIG. 5A illustrates the track examples for AID ChIP-seq in the BRD4-AID line and CCNT1 ChIP-seq in the BRD4-IAA7 line with/without auxin treatment (3 h). H3K27ac ChIP-seq signal in the BRD4-AID line is shown for comparison. FIG. 5B illustrates the heatmap showing the genome-wide BRD4 and CCNT1 occupancy profile and the corresponding fold change upon auxin treatment for the conditions in A. Genes ranked by BRD4 signal in control. FIG. 5C illustrates the scatter plot showing the relative promoter density of CCNT1 vs BRD4, calculated by the log 2RPKM of the ChIP-seq signals at the regions flanking (±1 Kb) the Pol II pausing sites. FIG. 5D illustrates the track examples for GFP ChIP-seq signal upon induction of GFP-tagged BRD4-FL or the indicated mutants (left). Heatmap showing the genome-wide fold changes of the GFP-tagged BRD4 mutants relative to the vector (right). The endogenous BRD4 was depleted by auxin treatment (3 h) in all samples. Genes are ranked by GFP signal in the GFP-BRD4-FL condition. FIG. 5E illustrates the track examples for CCNT1 ChIP-seq signal upon endogenous BRD4 depletion and rescue with indicated GFP-tagged mutants (left). Heatmap showing the genome-wide CCNT1 fold changes (right). […]

[2] = system: Ser2P; assay: Ser2P ChIP-seq upon JQ1 or dBET6 treatment; assay type: cell-based, human; conditions: BRD4-IAA7 cells; series concentration of JQ1 or 250 nM dBET6, 3 h
Protocol: as §1

[3] = system: Pol II pausing; conditions: reference 21; cited from earlier work
[4] = system: Pol II pausing; assay: total Pol II ChIP-seq upon auxin, JQ1, dBET6 or NVP-2 treatment; assay type: cell-based, human; conditions: BRD4-IAA7 cells
Text: FIG. 1A illustrates the updated BRD4-IAA7 degron line. The F-box protein AtAFB2 was integrated into the C terminus of the BRD4 locus under the control of an independent promoter. […] These treatment concentrations/durations are relevant to all of FIG. 1. […] The gene list (N=6481) in this analysis is used throughout the study (except for FIGS. 3H-J). FIG. 1D illustrates the estimated Cumulative Density Function (ECDF) of pause release ratios (PRR, reported as log 2 fold change) for auxin treatment vs untreated control. The PRR is the ratio of Pol II occupancy within gene bodies to its occupancy at promoters. A leftward shift of the curve indicates an increase in the frequency and/or duration of promoter-proximal pausing, while a rightward shift indicates reduced pausing and/or more efficient release into gene bodies.
FIGS. 8A-8E. collectively illustrate the differences in Pol II pausing induced by BRD4 depletion and bromodomain inhibition, related to FIG. 1. FIG. 8A illustrates the western blot showing the expression of HA-tagged AtAFB2 and the auxin-induced degradation of V5-tagged BRD4 using anti-tag antibodies. FIG. 8B illustrates the western blot comparing the BRD4 protein expression level and degradation kinetics of the previously published BRD4-AID degron to those of the BRD4-IAA7 degron used in this study 12. Note: in FIGS. 8A and 8B, the BRD4-IAA7 clone used is D4 (Hygromycin selected); it is G3 (Neomycin selected) otherwise in the study. […] FIG. 8E illustrates the track examples of Pol II ChIP-seq signal at the HSPA8 and GAPDH loci upon NVP-2 treatment (2 h) and corresponding heatmaps showing Pol II occupancy profiles and fold change in occupancy vs control upon NVP-2 treatment.
To specifically deplete BRD4 without affecting other BET proteins, we generated an updated BRD4 degron line by modifying the published miniIAA7 degron system (hereafter BRD4-IAA7) to reduce basal degradation seen with AID degron-tagged BRD4^30 (FIGS. 1A and 8A).
DLD1 cells were crosslinked with 15 ml 1% PFA (ThermoFisher, #28908) in PBS on 15 cm plates for 10 minutes at RT and quenched by the addition of 2 ml 2.5M glycine followed by shaking for 5 minutes. Crosslinked cells were collected by scraping. Chromatin sonication was performed for 10 minutes using a Covaris E200 set to 10% duty factor, 200 cycles per burst, and 140 peak intensity power. For endogenous protein ChIP, 10-20% of mouse embryonic fibroblasts (MEF) chromatin (prepared the same way as in DLD1 cells) was added to each sample as a spike-in control. For overexpressed protein ChIP, such as GFP-ChIP, 20 ng spike-in chromatin (Active Motif, #53083) and 2 ug spike-in antibody (Active Motif, #61686) were added to each sample. Immunoprecipitation was carried out at 4° C. overnight using 5ul of Rpb1 (Cell Signaling Technology, #D8L4Y), 5ul of Ser2p (Active Motif, #61984), 10ul of CCNT1 (Cell Signaling Technology, #81464), 10ul of CDK9 (Santa Cruz Biotechnology, #sc-13130 X) antibodies, or 200ul of a cocktail consisting of 50ul of each GFP antibody (DSHB, #GFP-G1, #GFP-12A6, #GFP-12E6, #GFP-8H11). Immune complexes were enriched with Protein G-coupled Dynabeads (Invitrogen, #10004D) at 4° C. for >=4 h, and incubated with proteinase K (Roche, #3115828001) to reverse crosslink at 65° C. overnight. Eluted DNA was purified with the QIAquick PCR Purification Kit (Qiagen, #28106), and libraries were prepared using the KAPA HTP library preparation kit (Roche, #07961901001) for sequencing on the NovaSeq 6000.
Reads were aligned to hg38 with bowtie 1/250. Genes (N=6,481) with pausing site and TES annotation were obtained from a previously published study51. Promoter regions were designated as spanning from 100 bp upstream to 300 bp downstream of the pausing site. Gene body regions were designated as spanning from 300 bp downstream of the pausing site to the TES. FeatureCounts 2.0.152 was used to calculate the total mapped reads from Pol II ChIP-seq at promoters and within gene bodies. […]

For Cc1sc2c(c1C)C(c1ccc(Cl)cc1)=N[C@@H](CC(=O)OC(C)(C)C)c1nnc(C)n1-2 [JQ1], the “CCNT1 ChIP-seq signals” value [1] is given as “decreased dramatically with increasing concentrations”, the “Ser2P ChIP-seq signals” value [2] is given as “minimal” and the “effect on Pol II pausing (RNA-seq, NET-seq)” value [3] is given as “only a modest effect on Pol II pausing”. The “effect on pausing at super enhancer-controlled genes such as Myc” value ([4]; MYC locus) was “notable”, the “Pol II pausing (Pol II occupancy profile)” value ([4]; auxin 500 uM, JQ1 1 uM, dBET6 250 nM, 3 h) was “induced little to no pausing” and the “gene-by-gene log 2PRR correlation with auxin treatment” value ([4]; scatter plot) was “poorly correlated”.

From patent US20240425555A1, “MUTANT BRD4 POLYPEPTIDES AND METHODS OF USE THEREOF” (Northwestern University, priority 2023, published 2024)
